Measured values: ChEMBL document CHEMBL5303304, “EUbOPEN Chemogenomics Library - IncuCyte” (2023)

Assays:
Format in all cases: toxicity, cell-based
U2OS = assay: Incucyte cell viability with U2OS; conditions: human, 10 µM, compound concentration 10 uM
HEK-293T = assay: Incucyte cell viability with HEK293T; conditions: human, 10 µM, compound concentration 10 uM
Fibroblast = assay: Incucyte cell viability with human fibroblast; conditions: 10 µM, compound concentration 10 uM
Further: unitless GR value; below 1 slowed growth and below 0 cell loss.

Row | SMILES | Growth Rate (U2OS; 0 h, replicate number 2) | Growth Rate (U2OS; 18 h, replicate number 1) | Growth Rate (HEK-293T; 6 h, replicate number 1) | Growth Rate (HEK-293T; 6 h, replicate number 2) | Growth Rate (HEK-293T; 12 h, replicate number 1) | Growth Rate (HEK-293T; 12 h, replicate number 2) | Growth Rate (HEK-293T; 18 h, replicate number 1) | Growth Rate (HEK-293T; 18 h, replicate number 2) | Growth Rate (HEK-293T; 24 h, replicate number 1) | Growth Rate (HEK-293T; 24 h, replicate number 2) | Growth Rate (Fibroblast; 6 h, replicate number 1) | Growth Rate (U2OS; 0 h, replicate number 1) | Growth Rate (Fibroblast; 6 h, replicate number 2) | Growth Rate (Fibroblast; 12 h, replicate number 2) | Growth Rate (Fibroblast; 24 h, replicate number 2) | Growth Rate (U2OS; 12 h, replicate number 1) | Growth Rate (U2OS; 18 h, replicate number 2) | Growth Rate (U2OS; 24 h, replicate number 2) | Growth Rate (Fibroblast; 18 h, replicate number 2) | Growth Rate (Fibroblast; 24 h, replicate number 1) | also measured
1 | CCC(C)(C)NC(=NC#N)Nc1cccnc1 | -0.68 | 1 | 0.19 | 0.56 | 0.42 | 0.56 | 0.64 | 0.78 | 0.85 | 0.95 | -1 | – | – | – | – | – | – | – | – | – | Growth Rate (U2OS; 12 h, replicate number 2): 0.85
2 | Cl.O=S(=O)(c1cccc2c(I)cccc12)N1CCCNCC1 | – | – | -0.39 | – | 0.3 | – | 0.81 | – | 0.89 | 0.88 | -1 | -1 | -0.05 | 0.87 | 0.96 | – | – | – | – | – | Growth Rate (U2OS; 6 h, replicate number 2): 0.86
3 | CC(Oc1cc(-c2cnn(C3CCNCC3)c2)cnc1N)c1c(Cl)ccc(F)c1Cl (stereo unspecified) | – | 0.4 | -0.85 | -0.51 | -0.78 | -0.35 | -0.49 | -0.18 | -0.28 | -0.11 | – | -1 | -0.95 | -0.64 | -0.44 | 0.53 | 0.45 | 0.5 | -0.52 | -0.22 | Growth Rate (U2OS; 12 h, replicate number 2): 0.65; Growth Rate (U2OS; 24 h, replicate number 1): 0.39; Growth Rate (Fibroblast; 12 h, replicate number 1): -0.94; Growth Rate (Fibroblast; 18 h, replicate number 1): -0.67
4 | O=C(Nc1ccc(Cl)nc1)c1ccc(Cl)cc1 | -0.39 | – | 0.33 | 0.16 | 0.71 | 0.63 | 0.59 | 0.53 | 0.63 | 0.65 | -0.32 | -0.12 | – | – | – | 0.95 | – | – | – | 0.54 | Growth Rate (Fibroblast; 0 h, replicate number 1): -0.21; Growth Rate (Fibroblast; 0 h, replicate number 2): -0.9
5 | CC[C@H](C(=O)Nc1ccccc1N1CCCC1)c1ccccc1 | – | – | 0.92 | 0.91 | – | – | – | – | – | – | – | – | -0.59 | 0.33 | 0.9 | – | 0.84 | 0.84 | 0.67 | -0.08 | Growth Rate (Fibroblast; 18 h, replicate number 1): -0.04
6 | Oc1cccc(Nc2ccnc3[nH]c4ccccc4c23)c1 | – | 0.69 | -0.94 | -0.96 | -0.75 | -0.62 | -0.41 | -0.28 | -0.06 | 0 | -0.78 | – | -0.81 | -0.25 | 0.3 | – | 0.7 | 0.63 | 0.18 | 0.48 | Growth Rate (U2OS; 12 h, replicate number 2): 0.91; Growth Rate (U2OS; 24 h, replicate number 1): 0.73; Growth Rate (Fibroblast; 0 h, replicate number 1): 0.68; Growth Rate (Fibroblast; 12 h, replicate number 1): -0.34
7 | Cc1c(C(=O)NCCCN(C)C)sc2ncnc(Nc3ccc(F)cc3OC(C)CF)c12 (stereo unspecified) | 0.69 | – | -0.52 | 0.2 | -0.29 | 0.14 | -0.13 | 0.14 | 0.07 | 0.16 | -1 | – | – | – | 0.55 | – | – | – | 0.93 | – | –
8 | Cc1c(NC(=O)c2cccn(-c3ccc(F)cc3)c2=O)ccc(Oc2ccnc(NC(=O)C3CC3)c2)c1C | -0.46 | 0.85 | 0.59 | 0.27 | – | 0.78 | – | 0.94 | – | – | 0.52 | -0.05 | 0.99 | – | – | 0.92 | – | 0.96 | – | – | Growth Rate (Fibroblast; 0 h, replicate number 2): 0.16
9 | CN1CCN([C@H]2CC[C@@H](n3cc(-c4ccc(Oc5ccccc5)cc4)c4c(N)ncnc43)CC2)CC1 | – | -0.15 | -0.98 | – | -0.89 | -0.8 | -0.69 | -0.6 | -0.55 | -0.44 | -1 | -1 | -0.98 | -0.72 | -0.46 | -0.26 | 0.03 | -0.03 | -0.51 | 0.42 | Growth Rate (U2OS; 6 h, replicate number 1): -0.82; Growth Rate (U2OS; 6 h, replicate number 2): -0.23; Growth Rate (U2OS; 12 h, replicate number 2): 0.01; Growth Rate (U2OS; 24 h, replicate number 1): -0.17
10 | CC(C)(C)c1ccc(-c2coc3ccc(-c4cn[nH]c4)nc23)cc1 | -0.87 | 0.67 | 0.67 | 0.37 | – | 0.72 | – | 0.95 | – | 0.84 | -0.96 | 0.77 | -0.95 | -0.62 | -0.11 | 0.97 | 0.81 | 0.63 | -0.24 | 0.94 | Growth Rate (U2OS; 24 h, replicate number 1): 0.5; Growth Rate (Fibroblast; 0 h, replicate number 2): 0.44
11 | O=C1NCc2ccc3c(-c4cccc(Cl)c4)c[nH]c3c21 | – | -0.16 | -0.5 | – | -0.49 | -0.24 | -0.21 | -0.13 | -0.06 | -0.07 | – | – | -1 | -0.89 | -0.57 | -0.32 | -0.11 | -0.06 | -0.75 | -0.46 | Growth Rate (U2OS; 6 h, replicate number 1): -0.34; Growth Rate (U2OS; 6 h, replicate number 2): 0.05; Growth Rate (U2OS; 12 h, replicate number 2): -0.15; Growth Rate (U2OS; 24 h, replicate number 1): -0.1; Growth Rate (Fibroblast; 12 h, replicate number 1): -1; Growth Rate (Fibroblast; 18 h, replicate number 1): -0.89
12 | COc1cc(C(=O)N2CC[C@@H](O)[C@@H](N)C2)cc2nc(-c3cc4ccccc4n3CC3CC3)n(C)c12.Cl | – | – | 0.46 | -0.12 | 0.73 | 0.39 | 0.82 | 0.3 | 0.58 | 0.27 | -1 | -0.93 | -0.02 | 0.16 | 0.27 | – | – | – | 0.2 | – | –
13 | CCn1c(-c2nc3cc(C(=O)N4CCCC(N)C4)ccc3n2C)cc2ccccc21.Cl (stereo unspecified) | -0.69 | – | 0.45 | 0.09 | – | 0.8 | – | 0.89 | – | 0.87 | -0.88 | -0.07 | 0.59 | 0.96 | 0.77 | – | – | – | 0.78 | – | –
14 | Cc1ccc(NC(=O)c2ccc3cnccc3c2)cc1C(=O)Nc1cnc(Nc2cccc(NC3CCN(C(=O)/C=C/CN(C)C)CC3)c2)nc1 | -0.97 | 0.33 | -0.97 | -0.98 | -0.87 | -0.77 | -0.65 | -0.56 | -0.54 | -0.39 | – | – | -1 | -0.71 | -0.3 | 0.17 | 0.49 | 0.46 | -0.42 | -0.28 | Growth Rate (U2OS; 6 h, replicate number 1): -0.26; Growth Rate (U2OS; 6 h, replicate number 2): 0.51; Growth Rate (U2OS; 12 h, replicate number 2): 0.68; Growth Rate (U2OS; 24 h, replicate number 1): 0.27; Growth Rate (Fibroblast; 0 h, replicate number 1): 0.35; Growth Rate (Fibroblast; 0 h, replicate number 2): -0.14; Growth Rate (Fibroblast; 12 h, replicate number 1): -0.99; Growth Rate (Fibroblast; 18 h, replicate number 1): -0.78
15 | COc1ccc(CCCN2CCC(COC(c3ccccc3)c3ccccc3)CC2)cc1.Cl | – | – | -0.53 | -0.09 | -0.23 | 0.28 | -0.02 | 0.26 | 0.24 | 0.31 | – | 0.33 | -1 | -0.74 | -0.23 | – | – | – | -0.39 | 0.17 | Growth Rate (Fibroblast; 12 h, replicate number 1): -0.98; Growth Rate (Fibroblast; 18 h, replicate number 1): -0.16
